Laboratory results from patent US20120021434A1, “METHOD FOR TREATING B CELL REGULATED AUTOIMMUNE DISORDERS” (Synta Pharmaceuticals Corp., priority 2005, published 2012).

Target: T1, c-Rel (Mus musculus, UniProt P15307)
T1 construct: nuclear extracts from RAW cells stimulated with LPS/IFNγ; endogenous in cells; host or cells: RAW264.7
Experiment: BD TransFactor assay of c-Rel DNA-binding activity in nuclear extracts of RAW 264.7 cells
Type: cell-based
Conditions: LPS/IFNγ, 1000 nM, 30 min pre-treatment, 3 hrs
Protocol: In this study, we examined the effect of Compound 50 on the DNA-binding activity of nuclear c-Rel. The BD transfactor assay (a non-radioactive version of a super-shift assay) was used to measure the DNA-binding activity of c-Rel. In this assay, nuclear extracts are added to biotinylated double-stranded oligonucleotides containing the NF-κB binding site bound to a streptavidin 96-well plate. Detection of the transcription factor-DNA complex is performed with a specific primary antibody for c-Rel. The 96-well format allows for simultaneous measurement of multiple conditions and proteins using HRP-conjugated secondary antibodies whose enzymatic product can be measured using a luminometer. The level of c-Rel DNA-binding activity increased 40-fold (relative to DMSO control) in nuclear extracts from RAW cells stimulated with LPS/IFNγ.
Methods: 20×10^6 Raw 264.7 cells were treated with either DMSO, LPS/IFNγ, or LPS/IFNγ/Compound 50. (LPS conc. 1 ug/ml f.c.; mouse IFNγ mouse 100 U/ml f.c, Compound 501 uM f.c). (LPS: Sigma Cat # L2654. Mouse IFNγ; Cat # R+D 485-MICF). […]
After measurement of protein concentration using BioRad assay, the nuclear extract was used in a Chemiluminescent NF-κB TransFactor Kit (BD) according to the user manual. […] Finally, amount of bound antibody to the plate was detected by incubation with chemiluminescent substrate and subsequent detection with a luminometer. […]

T1 sequence (P15307 whole entry): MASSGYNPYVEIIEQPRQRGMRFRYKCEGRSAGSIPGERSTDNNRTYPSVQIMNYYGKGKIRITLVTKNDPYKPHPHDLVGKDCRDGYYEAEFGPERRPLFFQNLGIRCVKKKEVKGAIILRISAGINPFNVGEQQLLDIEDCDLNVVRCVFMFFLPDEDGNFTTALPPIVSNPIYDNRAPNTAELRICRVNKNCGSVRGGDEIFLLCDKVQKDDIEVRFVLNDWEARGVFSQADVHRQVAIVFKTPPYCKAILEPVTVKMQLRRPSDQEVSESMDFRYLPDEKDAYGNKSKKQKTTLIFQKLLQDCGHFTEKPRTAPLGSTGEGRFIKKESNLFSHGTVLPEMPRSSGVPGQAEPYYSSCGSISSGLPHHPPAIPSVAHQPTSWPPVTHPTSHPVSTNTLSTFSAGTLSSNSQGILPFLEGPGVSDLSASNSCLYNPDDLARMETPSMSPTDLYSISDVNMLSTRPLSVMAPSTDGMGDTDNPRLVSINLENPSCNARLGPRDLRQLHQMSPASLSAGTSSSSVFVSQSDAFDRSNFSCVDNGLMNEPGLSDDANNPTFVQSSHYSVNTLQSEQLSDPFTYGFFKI

reduction in the level of c-Rel DNA-binding activity: 40%
Compound: Cc1cccc(/C=N/Nc2cc(N3CCOCC3)nc(OCCc3ccccn3)n2)c1 [Compound 50, N-(3-Methyl-benzylidene)-N′-[6-morpholin-4-yl-2-(2-pyridin-2-yl-ethoxy)-pyrimidin-4-yl]-hydrazine]
